Source: patent US6737383B1, “Herbicidal oxadiazolidines” (priority 1999, dated 2004)

Tests used:
giant foxtail = experiment: Test C postemergence giant foxtail; assay type: in vivo, Setaria faberii; details: 0 to 100 scale, 0 no effect, 100 complete control
How it was run: (§1)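 Compounds in a non-phytotoxic solvent with surfactant were sprayed postemergence on greenhouse-grown plants in 60:40 sandy loam/potting mix. After about 14 to 21 days, visual ratings against untreated controls on a 0 (no effect) to 100 (complete control) scale.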

redroot pigweed = experiment: Test C postemergence redroot pigweed; assay type: in vivo, Amaranthus retroflexus; details: 0 to 100 scale, 0 no effect, 100 complete control
How it was run: as §1

common ragweed = experiment: Test C postemergence common ragweed; assay type: in vivo, Ambrosia elatior; details: 0 to 100 scale, 0 no effect, 100 complete control
How it was run: as §1

cotton = experiment: Test C postemergence cotton; assay type: in vivo, Gossypium hirsutum; details: 0 to 100 scale, 0 no effect, 100 complete control
How it was run: as §1

eastern black nightshade = experiment: Test C postemergence eastern black nightshade; assay type: in vivo, Solanum ptycanthum; details: 0 to 100 scale, 0 no effect, 100 complete control
How it was run: as §1

corn = experiment: Test C postemergence corn; assay type: in vivo, Zea mays; details: 0 to 100 scale, 0 no effect, 100 complete control
How it was run: as §1

johnsongrass = experiment: Test C postemergence johnsongrass; assay type: in vivo, Sorghum halepense; details: 0 to 100 scale, 0 no effect, 100 complete control
How it was run: as §1

ladysthumb smartweed = experiment: Test C postemergence ladysthumb smartweed; assay type: in vivo, Polygonum persicaria; details: 0 to 100 scale, 0 no effect, 100 complete control
How it was run: as §1

ivyleaf morningglory = experiment: Test C postemergence ivyleaf morningglory; assay type: in vivo, Ipomoea hederacea; details: 0 to 100 scale, 0 no effect, 100 complete control
How it was run: as §1

fall panicum = experiment: Test C postemergence fall panicum; assay type: in vivo, Panicum dichotomiflorum; details: 0 to 100 scale, 0 no effect, 100 complete control
How it was run: as §1

purple nutsedge = experiment: Test C postemergence purple nutsedge; assay type: in vivo, Cyperus rotundus; details: 0 to 100 scale, 0 no effect, 100 complete control
How it was run: as §1

large crabgrass = experiment: Test C postemergence large crabgrass; assay type: in vivo, Digitaria sanguinalis; details: 0 to 100 scale, 0 no effect, 100 complete control
How it was run: as §1

arrowleaf sida = experiment: Test C postemergence arrowleaf sida; assay type: in vivo, Sida rhombifolia; details: 0 to 100 scale, 0 no effect, 100 complete control
How it was run: as §1

sourgrass = experiment: Test D sourgrass; assay type: in vivo, Trichachne insularis; details: Preemergence, 0 to 100 scale
How it was run: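 Values are visual plant-response ratings (0 no injury, 100 complete control) recorded 14 to 21 days after herbicide treatment, using a non-phytotoxic solvent mixture containing surfactant. Preemergence applications went to the surface of pots holding freshly sown seed in sandy loam.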

SMILES: CC(C)N(C(=O)n1oc(=O)n(C(C)C)c1=O)c1ccc(F)cc1F [Compound 109]
- Plant response rating, Giant foxtail (giant foxtail; Rate 140 g/ha): 50
- Plant response rating, Giant foxtail (giant foxtail; Rate 280 g/ha): 80
- Plant response rating, Giant foxtail (giant foxtail; Rate 560 g/ha): 80
- Plant response rating, Giant foxtail (giant foxtail; Rate 1120 g/ha): 85
- Plant response rating, Redroot pigweed (redroot pigweed; Rate 140 g/ha): 0
- Plant response rating, Redroot pigweed (redroot pigweed; Rate 280 g/ha): 40
- Plant response rating, Redroot pigweed (redroot pigweed; Rate 560 g/ha): 70
- Plant response rating, Redroot pigweed (redroot pigweed; Rate 1120 g/ha): 85
- Plant response rating Common ragweed (common ragweed; Rate 140 g/ha): 5
- Plant response rating Common ragweed (common ragweed; Rate 280 g/ha): 10
- Plant response rating Common ragweed (common ragweed; Rate 560 g/ha): 10
- Plant response rating Common ragweed (common ragweed; Rate 1120 g/ha): 20
- Plant response rating Cotton (cotton; Rate 140 g/ha): 10
- Plant response rating Cotton (cotton; Rate 280 g/ha): 50
- Plant response rating Cotton (cotton; Rate 560 g/ha): 70
- Plant response rating Cotton (cotton; Rate 1120 g/ha): 70
- Plant response rating E. blacknightsh (eastern black nightshade; Rate 140 g/ha): 50
- Plant response rating E. blacknightsh (eastern black nightshade; Rate 280 g/ha): 80
- Plant response rating E. blacknightsh (eastern black nightshade; Rate 1120 g/ha): 95
- Plant response rating, Corn (corn; Rate 140 g/ha): 0
- Plant response rating, Corn (corn; Rate 280 g/ha): 0
- Plant response rating, Corn (corn; Rate 560 g/ha): 5
- Plant response rating, Corn (corn; Rate 1120 g/ha): 55
- Plant response rating Johnsongrass (johnsongrass; Rate 140 g/ha): 0
- Plant response rating Johnsongrass (johnsongrass; Rate 280 g/ha): 10
- Plant response rating Johnsongrass (johnsongrass; Rate 560 g/ha): 60
- Plant response rating Johnsongrass (johnsongrass; Rate 1120 g/ha): 95
- Plant response rating Ladysthumb (ladysthumb smartweed; Rate 280 g/ha): 10
- Plant response rating Ladysthumb (ladysthumb smartweed; Rate 560 g/ha): 30
- Plant response rating Ladysthumb (ladysthumb smartweed; Rate 1120 g/ha): 95
- Plant response rating I. morningglory (ivyleaf morningglory; Rate 140 g/ha): 0
- Plant response rating I. morningglory (ivyleaf morningglory; Rate 280 g/ha): 50
- Plant response rating I. morningglory (ivyleaf morningglory; Rate 560 g/ha): 50
- Plant response rating I. morningglory (ivyleaf morningglory; Rate 1120 g/ha): 70
- Plant response rating Fall panicum (fall panicum; Rate 140 g/ha): 50
- Plant response rating Fall panicum (fall panicum; Rate 280 g/ha): 50
- Plant response rating Fall panicum (fall panicum; Rate 560 g/ha): 80
- Plant response rating Fall panicum (fall panicum; Rate 1120 g/ha): 95
- Plant response rating, Purple nutsedge (purple nutsedge; Rate 140 g/ha): 0
- Plant response rating, Purple nutsedge (purple nutsedge; Rate 280 g/ha): 0
- Plant response rating, Purple nutsedge (purple nutsedge; Rate 560 g/ha): 0
- Plant response rating, Purple nutsedge (purple nutsedge; Rate 1120 g/ha): 0
- Plant response rating Large crabgrass (large crabgrass; Rate 140 g/ha): 10
- Plant response rating Large crabgrass (large crabgrass; Rate 280 g/ha): 60
- Plant response rating Large crabgrass (large crabgrass; Rate 560 g/ha): 90
- Plant response rating Large crabgrass (large crabgrass; Rate 1120 g/ha): 90
- Plant response rating Arrowleaf sida (arrowleaf sida; Rate 140 g/ha): 60
- Plant response rating Arrowleaf sida (arrowleaf sida; Rate 280 g/ha): 70
- Plant response rating Arrowleaf sida (arrowleaf sida; Rate 560 g/ha): 85
- Plant response rating Arrowleaf sida (arrowleaf sida; Rate 1120 g/ha): 95

SMILES: C=CCn1c(=O)on(C(=O)N(c2ccc(F)cc2)C(C)C)c1=O [Compound 146]
- Plant response rating, Giant foxtail (giant foxtail; Rate 140 g/ha): 0
- Plant response rating, Giant foxtail (giant foxtail; Rate 280 g/ha): 40
- Plant response rating, Giant foxtail (giant foxtail; Rate 560 g/ha): 80
- Plant response rating, Giant foxtail (giant foxtail; Rate 1120 g/ha): 85
- Plant response rating, Redroot pigweed (redroot pigweed; Rate 140 g/ha): 0
- Plant response rating, Redroot pigweed (redroot pigweed; Rate 1120 g/ha): 20
- Plant response rating Common ragweed (common ragweed; Rate 140 g/ha): 10
- Plant response rating Common ragweed (common ragweed; Rate 560 g/ha): 30
- Plant response rating Common ragweed (common ragweed; Rate 1120 g/ha): 30
- Plant response rating Cotton (cotton; Rate 140 g/ha): 40
- Plant response rating Cotton (cotton; Rate 280 g/ha): 65
- Plant response rating Cotton (cotton; Rate 560 g/ha): 65
- Plant response rating Cotton (cotton; Rate 1120 g/ha): 70
- Plant response rating E. blacknightsh (eastern black nightshade; Rate 140 g/ha): 0
- Plant response rating E. blacknightsh (eastern black nightshade; Rate 280 g/ha): 30
- Plant response rating E. blacknightsh (eastern black nightshade; Rate 560 g/ha): 85
- Plant response rating E. blacknightsh (eastern black nightshade; Rate 1120 g/ha): 85
- Plant response rating, Corn (corn; Rate 140 g/ha): 0
- Plant response rating, Corn (corn; Rate 280 g/ha): 0
- Plant response rating, Corn (corn; Rate 560 g/ha): 5
- Plant response rating, Corn (corn; Rate 1120 g/ha): 50
- Plant response rating Johnsongrass (johnsongrass; Rate 140 g/ha): 0
- Plant response rating Johnsongrass (johnsongrass; Rate 280 g/ha): 30
- Plant response rating Johnsongrass (johnsongrass; Rate 560 g/ha): 60
- Plant response rating Johnsongrass (johnsongrass; Rate 1120 g/ha): 90
- Plant response rating Ladysthumb (ladysthumb smartweed; Rate 140 g/ha): 0
- Plant response rating Ladysthumb (ladysthumb smartweed; Rate 280 g/ha): 10
- Plant response rating Ladysthumb (ladysthumb smartweed; Rate 560 g/ha): 85
- Plant response rating I. morningglory (ivyleaf morningglory; Rate 140 g/ha): 0
- Plant response rating I. morningglory (ivyleaf morningglory; Rate 280 g/ha): 20
- Plant response rating I. morningglory (ivyleaf morningglory; Rate 560 g/ha): 20
- Plant response rating I. morningglory (ivyleaf morningglory; Rate 1120 g/ha): 50
- Plant response rating Fall panicum (fall panicum; Rate 140 g/ha): 50
- Plant response rating Fall panicum (fall panicum; Rate 280 g/ha): 60
- Plant response rating Fall panicum (fall panicum; Rate 560 g/ha): 90
- Plant response rating Fall panicum (fall panicum; Rate 1120 g/ha): 90
- Plant response rating, Purple nutsedge (purple nutsedge; Rate 140 g/ha): 0
- Plant response rating, Purple nutsedge (purple nutsedge; Rate 280 g/ha): 0
- Plant response rating, Purple nutsedge (purple nutsedge; Rate 560 g/ha): 0
- Plant response rating, Purple nutsedge (purple nutsedge; Rate 1120 g/ha): 0
- Plant response rating Large crabgrass (large crabgrass; Rate 140 g/ha): 0
- Plant response rating Large crabgrass (large crabgrass; Rate 280 g/ha): 60
- Plant response rating Large crabgrass (large crabgrass; Rate 560 g/ha): 60
- Plant response rating Large crabgrass (large crabgrass; Rate 1120 g/ha): 80
- Plant response rating, Sourgrass (sourgrass; Rate 16 g/ha, 0 no injury, 100 complete control): 0
- Plant response rating, Sourgrass (sourgrass; Rate 32 g/ha, 0 no injury, 100 complete control): 98
- Sourgrass plant response rating (sourgrass; Rate 64 g/ha, 0 no injury, 100 complete control): 100
- Sourgrass plant response rating (sourgrass; Rate 125 g/ha, 0 no injury, 100 complete control): 100
- Plant response rating, Sourgrass (sourgrass; Rate 250 g/ha): 100
- Plant response rating, Sourgrass (sourgrass; Rate 500 g/ha): 100
- Plant response rating Arrowleaf sida (arrowleaf sida; Rate 140 g/ha): 40
- Plant response rating Arrowleaf sida (arrowleaf sida; Rate 280 g/ha): 45
- Plant response rating Arrowleaf sida (arrowleaf sida; Rate 560 g/ha): 85
- Plant response rating Arrowleaf sida (arrowleaf sida; Rate 1120 g/ha): 90
